Data as given in patent US5877210A, “Phosphotyrosine phosphatase inhibitors or phosphotyrosine kinase activators for controlling cellular proliferation” (priority 1995, dated 1999).

What was measured:
normal tonsillar B cells = assay: Normal tonsillar B cell proliferation; format: cell-based
Excerpt: BMLOV can inhibit normal tonsillar B cell proliferation driven by stimulation of CD40 via either anti-CD40 antibody or gp39 ligand plus either anti-CD20 antibody or phorbol 12-myristate 13-acetate (PMA). […] Variations between the individuals from which the tonsils were derived could account for the differences between these experiments.

[1] = system: peripheral blood lymphocytes (PBL); assay: PBL growth driven by antibody/cytokine stimulation; format: cell-based, human
PLCγ2 = PLCγ2 tyrosine phosphorylation in Ramos B cells; format: cell-based, human; details: 16 h, dose-dependent, no antigen receptor stimulation
Experimental: Syk is essential for the tyrosine phosphorylation of PLCγ2 that leads to Ca^2+ signaling in B cells following antigen receptor stimulation (M. Takata et al., EMBO J. 13:1341-1349 (1994)). […] In the experiments shown in FIG. 24, Ramos B cells were treated 16 h with the indicated concentrations of BMLOV and then stimulated for 2 min with α-μ. Antibody binding in immunoblots was detected by ECL. […] The extent of tyrosine phosphorylation of PLCγ2 induced by BMLOV was substantially more than that observed following a maximal sIgM stimulation, and no additional tyrosine phosphorylation of PLCγ2 could be induced by sIgM stimulation of BMLOV treated cells.

T cells = assay: Anti-phosphotyrosine immunoblot of T cell lysates, basal and anti-CD3 stimulated; format: cell-based; details: 16 h, even at 50 μM BMLOV
Experimental: In the experiments shown in FIG. 25, human PHA-induced T cell blasts were treated overnight with the indicated concentrations of BMLOV. In Panel A, the baseline level of intracellular free Ca^2+ ([Ca^2+ ]i) was established for 1 min, and then the cells were treated with biotinylated anti-CD3 mAb (G19-4). After 5 min avidin was added (gap in the trace) to cross-link the antibody. In Panel B, assays were performed as in Panel A, but in the presence of 5 mM EGTA. […] In the experiments shown in FIG. 26, cells were treated 16 h with BMLOV and then stimulated with anti-CD3 mAb G19-4 for 5 min. Cells were then washed and resuspended in fresh media at equal concentrations of BMLOV at 37° C. Cells were then harvested and lysed at times following the initiation of CD3 stimulation as indicated. Antibody binding in immunoblots was detected by ECL.

Ramos B cells = assay: Confocal laser scanning microscopy; format: cell-based, human; details: 25 μm BMLOV, 48 h
Experimental: Cells were fixed with 3.7% formaldehyde in PBS and permeabilized by treatment with 0.1% saponin. […] The cells were then washed three times in staining buffer, and stained with fluorescein-labeled goat anti-rabbit antibody (Molecular Probes). After washing three times in staining buffer, cells were stained for DNA with 2 μg/ml propidium iodide. A Leica GmbH confocal laser scanning microscope (CLSM) (Leica Laser Technic, Heidelberg, Germany) equipped with a krypton/argon laser (Omnichrome, Chino, Calif.), 2 double dichroic beam splitters with λs1 /λs2 of 488/647 and 488/568 nm, 1 neutral density beam splitter (Lys Optics, Denmark), the Leica CLSM software accessories, and the Leica true color display graphics package was used to produce the confocal images.
In addition to DNA fragmentation, apoptotic lymphocytes display condensation of chromatin, loss of DNA and fragmentation of nuclei that can be detected by confocal laser scanning microscopy (CLSM) of propidium iodide stained cells (R. Sgonc & G. Wick, Int. Arch. Allergy Immunol. 105:327-332 (1994)). Therefore, CLSM was used to examine Ramos cells stained for DNA with propidium iodide and stained for phosphotyrosine (FIG. 29). In the experiments shown in FIG. 29, Ramos B cells were fixed, permeabilized and stained with propidium iodide for DNA (red) and with anti-phosphotyrosine antibodies (green) as described above. […]

[2] = system: L1210 murine T cell leukemia cells; assay: Apoptosis: DNA fragmentation on agarose gel; format: cell-based; details: pV(phen), FIG. 18
Experimental: For these experiments, cell samples (2×10^6 cells) were centrifuged at 200× g, the media removed by aspiration and the cell pellets stored at -70° C. until processing. Cell pellets were resuspended in 300 μl digestion buffer (100 mM NaCl, 10 mM Tris-HCl, pH 8.0, 25 mM EDTA, 0.5% SDS, 0.1 mg/ml protease K) and incubated for 12 hours at 50° C. DNase-free ribonuclease (5 μg) in 200 μl TE buffer (10 mM Tris-HCl, pH 7.5, 1 mM EDTA) was added to each sample followed by incubation for 2 hours at 37° C. DNA was then extracted once with phenol:chloroform, once with chloroform and then precipitated with 0.5 volumes of ammonium acetate and 2 volumes of ethanol at -70° C. for 12 hours. The precipitated DNA was resuspended in 200 μl TE buffer and quantitated by absorbance at 260 nanometers. The DNA (15 μg) was applied to a 1.3% agarose gel in TBE buffer (89 mM Tris base, 89 mM boric acid, 2 mM EDTA) resolved at 20 mA constant current and the DNA was visualized by staining with ethidium bromide. Fragmented DNA due to apoptosis appeared as a ladder of bands on the gel.
L1210 murine T cell leukemia cells were treated with the indicated concentrations of pV(phen) for the indicated times and the DNA was examined by gel electrophoresis as in Example 3.

Structure (SMILES) | effect on proliferation (normal tonsillar B cells; first experiment (FIG. 3), 0.1 to 10 μM BMLOV) | effect on proliferation (normal tonsillar B cells; second experiment (FIG. 4), 5 μM BMLOV) | effect on proliferation (normal tonsillar B cells; second experiment (FIG. 4), 50 μM BMLOV) | PBL growth driven by anti-CD28 antibody plus IL-2 ([1]; 1 μM BMLOV) | PBL growth driven by anti-CD3 antibody plus anti-CD28 antibody ([1]; 10 μM BMLOV) | tyrosine phosphorylation of PLCγ2 (PLCγ2) | basal or T cell receptor induced cellular tyrosine phosphorylation (T cells) | nuclear morphology by CLSM (Ramos B cells) | induction of apoptosis (DNA fragmentation) [2]
Cc1occc(=O)c1[O-].Cc1occc(=O)c1[O-].[O]=[V+2] [BMLOV, Bis(maltolato)oxovanadium (IV)] | little effect on proliferation | substantial inhibition of proliferation | completely blocked proliferation | markedly inhibited | strongly inhibited | strongly induced the tyrosine phosphorylation of PLCγ2 | little effect on basal or T cell receptor induced cellular tyrosine phosphorylation | extensive loss of DNA, condensation of chromatin | –
[Na+].[O]=[V-]12([O][O]1)[O][O]2.c1cnc2c(c1)ccc1cccnc12 [pV(phen), sodium (1,10-phenanthroline) oxodiperoxovanadium (V)] | – | – | – | – | – | – | – | – | fragmentation of DNA demonstrates apoptosis
